Entries after “also recorded” stand apart in the source; their conditions may differ.
Tests used:
Format in all cases: physicochemical
[1] = Stabilization of avobenzone in presence of single carotenoids; conditions: for protective activity vs avobenzone degradation: lycopene 1.6 mg/mL in squalane
Procedure: (§1) Key elements for this test are: consistent irradiation (known and consistent light source and positioning of samples with respect to the light source); optimal exposure of the sample to UV light (thin but consistent layer sample, in a flat vessel with no high walls which could screen out UV light); consistent sampling (especially recovery of irradiated material for analysis). Under the instant method, irradiation takes place in the Innova 4340 incubator, fitted with UV tubes (UVC: Osram Puritec-HNS3OVG13-G30T8/OF; UVB: Voltarc E312/F30T8; UVA: Sylvania F30T8/350BL)—allowing for intense, known, reproducible and even irradiation (a known illuminant is the single source of light—a wide light source and the incubator's metallic walls also help achieve even illumination). Samples are exposed in Brand plastic vial caps made of polyethylene, 26 mm diameter, 5 mm wall height, 400 μL sample volume, in triplicates, generally introduced as solutions in suitable oil carriers)—enabling irradiation of a relatively even and thin layer while allowing consistent sample recovery.
Analysis of the avobenzone content of the samples was done by UV spectroscopy (absorption @ 350 nm for avobenzone; sample dilution ×400 in hexanes). As phytofluene absorbs in the UV range relevant to our measure of avobenzone, blank TCLC samples (i.e. without avobenzone) were irradiated in parallel with test samples and absorption @ 350 nm was measured before and after irradiation. This absorption was deducted from the avobenzone absorption data, producing the corrected data shown here (unless noted otherwise).
Based on the above results, degradation of avobenzone was next measured in the presence of single carotenoids, specifically: phytoene (PE), phytofluene (PF), zeta-carotene (ZC) and Lycopene (LY).
Carotenoids levels: for the purposes of these experiments, phytoene was tested at 1.3 mg/mL; phytofluene was tested at 0.3 mg/mL; zeta-carotene and lycopene were tested at 1.6 mg/mL.
Irradiation was carried out with combined UVA+UVB (4:2, 18 h) and UVA+UVB+UVC (3:2:1, 10 h).

[2] = UV absorbance spectra / absorption maximum; conditions: FIG. 10
[3] = Effect of phytoene/phytofluene levels and ratio variations on avobenzone stabilization; conditions: combined UVA+UVB+UVC 10 h; low 0.3 mg/mL, high 1.3 mg/mL; listed as PE
Procedure: as §1, with “Samples are exposed in Brand plastic vial caps made of polyethylene, 26 mm diameter, 5 mm wall height, 400 μL sample volume, in triplicates, generally introduced as solutions in suitable oil carriers)—enabling irradiation of a relatively even and thin layer while allowing consistent sample recovery.” left out
Analysis of the avobenzone content of the samples was done by UV spectroscopy (absorption @ 350 nm for avobenzone; sample dilution ×400 in hexanes). As phytofluene absorbs in the UV range relevant to our measure of avobenzone, blank TCLC samples (i.e. without avobenzone) were irradiated in parallel with test samples and absorption @ 350 nm was measured before and after irradiation. […]

[4] = 3% avobenzone cream, in vitro SPF/UVA-PF and photo stability (Colipa 2009); conditions: UVA dose 10 J/cm^2, Suntest
Procedure: Following the convincing results from the studies described above, a preliminary study with a basic cream containing 3% avobenzone labelled 703-1, to which phytoene and phytofluene (0.0075%), was added and labelled 703-2, was conducted to determine the contribution of phytofluene to sun protection and photo stability of avobenzone under UVA following the Colipa 2009 in vitro Standard Guidelines. Approximately 1.7 mg/cm^2 of each composition is applied to 5 PMMA plates (Helioplates-HD-6, Helioscreen®, Source: Labsphere, North Sutton, N.H.), respectively, and allowed to equilibrate for at least 15 minutes. Absorbance spectra from 5 locations on each plate are measured using a UV2000 Sunscreen Analyzer (Labsphere, North Sutton, N.H.). […] Plate temperatures are 25-35° C. Mean UVA protection factors at each UV dose are then computed for each test product, using Colipa UVA Protection Factor Test Method Spreadsheet, and mean absorbance spectra from 290 to 400 nm is obtained.

For `CC(C)=CCC/C(C)=C/C=C/C(C)=C/C=C/C(C)=C/C=C/C=C(C)/C=C/C=C(C)/C=C/C=C(\C)CCC=C(C)C` [Lycopene], the “protective activity vs avobenzone degradation” value ([1]; combined UVA+UVB 4:2, 18 h) was “slight protective activity” and the “protective activity vs avobenzone degradation” value ([1]; combined UVA+UVB+UVC 3:2:1, 10 h) was “no significant activity”.
With `CC(C)=CCC/C(C)=C/CC/C(C)=C/C=C/C(C)=C/C=C/C=C(C)/C=C/C=C(\C)CC/C=C(\C)CCC=C(C)C` [Zeta-carotene, zeta-carotene] the “stabilizing / protective effect on avobenzone” value ([1]; UVA+UVB (18 h) and UVA+UVB+UVC (10 h), not distinguished, phytoene 1.3, phytofluene 0.3, zeta-carotene 1.6 mg/mL) was “some protective activity”.
In the case of `CC(C)=CCC/C(C)=C/CC/C(C)=C/CC/C(C)=C/C=C/C=C(\C)CC/C=C(\C)CC/C=C(\C)CCC=C(C)C` [phytoene], the “λmax of absorbance spectra” value [2] is reported as 286 nm and the “protective activity vs degradation of avobenzone” value [3] is reported as “level-dependent; also recorded: roughly comparable activities”.
For `CC(C)=CCC/C(C)=C/CC/C(C)=C/C=C/C(C)=C/C=C/C=C(\C)CC/C=C(\C)CC/C=C(\C)CCC=C(C)C` [phytofluene], the “boost to UVA-PF” value [4] was “addition to UVA-Pf” and the “λmax of absorbance spectra” value [2] was 348 nm.

— patent US20110212040A1, “STABILIZED SUNSCREEN COMPOSITIONS” (priority 2010, published 2011)
